According to BindingDB's records for doi:10.7270/Q2H993J6 (Pcmd, 2008):

Biological target: Coagulation factor XI (Homo sapiens, UniProt P03951)
Assay: FXIa inhibitor IC50 values, dose response, biochemical, hits from 1536-well screen (AID 846)
Conditions: pH 7.4; 23 °C

Sequence of Coagulation factor XI (P03951 19-387 limits assumed): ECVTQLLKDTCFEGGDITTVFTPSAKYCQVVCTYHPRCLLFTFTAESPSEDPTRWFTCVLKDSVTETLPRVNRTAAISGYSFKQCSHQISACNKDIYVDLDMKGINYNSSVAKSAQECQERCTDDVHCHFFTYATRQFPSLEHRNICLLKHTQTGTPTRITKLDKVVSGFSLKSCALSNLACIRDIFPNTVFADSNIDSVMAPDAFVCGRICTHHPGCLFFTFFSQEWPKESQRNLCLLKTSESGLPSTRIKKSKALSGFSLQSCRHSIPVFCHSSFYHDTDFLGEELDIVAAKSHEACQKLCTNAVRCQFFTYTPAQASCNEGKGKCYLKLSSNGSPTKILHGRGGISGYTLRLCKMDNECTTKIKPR
Sequence of Coagulation factor XI (P03951 388-625 limits assumed): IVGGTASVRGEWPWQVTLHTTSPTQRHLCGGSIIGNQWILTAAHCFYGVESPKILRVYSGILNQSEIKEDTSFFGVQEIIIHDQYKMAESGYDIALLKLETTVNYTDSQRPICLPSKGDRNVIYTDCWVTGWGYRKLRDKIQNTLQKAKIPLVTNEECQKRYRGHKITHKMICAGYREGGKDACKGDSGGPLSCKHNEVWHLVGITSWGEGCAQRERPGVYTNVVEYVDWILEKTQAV

Compound	IC50
Cc1ccc2c(CN3CCN(Cc4ccc5c(c4)OCO5)CC3)cc(=O)oc2c1C [4-[[4-(1,3-benzodioxol-5-ylmethyl)-1-piperazinyl]methyl]-7,8-dimethyl-1-benzopyran-2-one]	> 50 µM
COc1cc(C(=O)OCC(C)=O)ccc1OCc1c(C)noc1C [SMR000377658]	> 50 µM
Cc1sc2c(c1C)C(=O)NC(c1cccc(O)c1)N2 (stereo unspecified) [2-(3-hydroxyphenyl)-5,6-dimethyl-2,3-dihydrothieno[2,3-d]pyrimidin-4(1H)-one]	> 50 µM
O=C(Oc1ccc(=O)n(-c2ccccc2)n1)c1cccc(Cl)c1 [(6-oxidanylidene-1-phenyl-pyridazin-3-yl) 3-chloranylbenzoate]	1.71 µM
COc1cccc(C=NNC(=O)c2[nH]c(C)c(C(=O)NN=Cc3cccc(OC)c3O)c2C)c1O [SMR000162187]	> 50 µM
CC(C)N(Cc1ccccc1)C(S)=NC1CCCCC1 [MLS001033857]	> 50 µM
CC(=O)Nc1ccc(S(=O)(=O)NNC(=O)COc2ccc(Cl)cc2Cl)cc1 [MLS000777409]	> 50 µM
Cc1cc(C(=O)Cn2nc(C(=O)O)c3ccccc3c2=O)c(C)n1-c1cccc(C(F)(F)F)c1	> 50 µM
Cc1cc(C)c(S(=O)(=O)ON2C(=O)c3ccccc3C2=O)cc1C [MLS000577081]	1.01 µM
CN(C)c1ccc(C(=S)N2CCN(c3ccc([N+](=O)[O-])cc3)CC2)cc1 [MLS001033622]	> 50 µM
COc1cc(C=NNC(=O)c2ccc(CN3C(=O)c4cccc5cccc3c45)cc2)cc(OC)c1O [MLS001033788]	> 50 µM
C=C(C)CNC(=S)NN=C(C)c1cccc(NC(C)=O)c1 [SMR000384154]	> 50 µM
Cn1cccc1/C=C1\C(=O)NC(=O)N(Cc2ccccc2Cl)C1=O [(5E)-1-[(2-chlorophenyl)methyl]-5-[(1-methylpyrrol-2-yl)methylidene]-1,3-diazinane-2,4,6-trione]	> 50 µM
COc1ccc(C=Nn2c(C)cc(C)cc2=O)cc1 [SMR000269659]	> 50 µM
O=C(Nc1ccc2c(c1)oc1ccccc12)N1CCOCC1 [Morpholine-4-carboxylic acid dibenzofuran-3-ylamide]	> 50 µM
Cc1cccc(OCC(O)CN2CC3(C)CC2CC(C)(C)C3)c1 (stereo unspecified) [SMR000249047]	> 50 µM
Cc1ccccc1C(=O)NC1CCSC1=O (stereo unspecified) [MLS000709097]	> 50 µM
CONC(=N)c1nonc1N [MLS001049218]	> 50 µM
CCOc1ccc(NC(=O)CN2C(=O)/C(=C3\SC(=S)N(C4CCS(=O)(=O)C4)C3=O)c3ccccc32)cc1 (stereo unspecified) [2-[(3Z)-3-[3-[1,1-bis(oxidanylidene)thiolan-3-yl]-4-oxidanylidene-2-sulfanylidene-1,3-thiazolidin-5-ylidene]-2-oxidanylidene-indol-1-yl]-N-(4-ethoxyphenyl)ethanamide;ethanoic acid]	> 50 µM
CCN(C(=O)COC(=O)/C=C/c1c(C)nn(-c2ccccc2)c1C)C1CCS(=O)(=O)C1 (stereo unspecified) [(E)-3-(3,5-dimethyl-1-phenyl-4-pyrazolyl)-2-propenoic acid [2-[(1,1-dioxo-3-thiolanyl)-ethylamino]-2-oxoethyl] ester]	> 50 µM
Cn1nnc(CC[N+](C)(C)C)n1 [SMR000427769]	> 50 µM
